Reference: patent US6969711B2, “Cyclic diamine compounds and medicine containing the same” (Kowa Company, Ltd., priority 1997, dated 2005)

Compared with CCSc1cc(C)nc(SCC)c1NC(=O)CN1CCN(CCSc2nc3cccc(C(F)(F)F)c3o2)CC1 [Example 89, 2-[4-[2-(7-trifluoromethylbenzoxazol-2-ylthio)ethyl]piperazin-1-yl]-N-[2,4-bis(ethylthio)-6-methyl-3-pyridyl]acetamide], CCSc1cc(C)nc(SCC)c1NC(=O)CN1CCN(CCSc2nc3cccc(C(=O)OC)c3o2)CC1 [Example 35, 2-[4-[2-(7-methoxycarbonylbenzoxazol-2-ylthio)ethyl]piperazin-1-yl]-N-[2,4-bis(ethylthio)-6methyl-3-pyridyl)acetamide] is higher in melting point: 107 to 108 °C for the first, 118 to 119 °C for the second.

Compared with CCCCCCCN(CCN1CCN(CCSc2nc3ccccc3s2)CC1)C(=O)Nc1c(SCC)cc(C)nc1SCC.Cl.Cl, CCCCCCCN(CCN1CCN(CCSc2nc3ccccc3o2)CC1)C(=O)Nc1c(SCC)cc(C)nc1SCC.Cl.Cl is lower in melting point: 136 to 138 °C for the first, 124 to 127 °C for the second.

Compared with CCCCCCCN(CCN1CCN(CCCSc2nc3ccccc3o2)CC1)C(=O)Nc1c(SC)cc(C)nc1SC.Cl.Cl, CCCCCCCN(CCN1CCN(CCSc2nc3ncccc3o2)CC1)C(=O)Nc1c(C(C)C)cc(O)cc1C(C)C [Example 139, N′-(2,6-diisopropyl-4-hydroxyphenyl)-N-heptyl-N-[2-[4-[2-(oxazolo[4,5-b]pyridin-2-ylthio)ethyl]piperazin-1-yl]ethyl]urea] is lower in melting point: 208 to 210 °C for the first, 100 to 102 °C for the second.

First: COc1cc(C(C)C)c(NC(=O)CN2CCN(CCSc3nc4cccc([N+](=O)[O-])c4o3)CC2)c(C(C)C)c1 [Example 105, 2-[4-[2-(7-nitrobenzoxazol-2-ylthio)ethyl]-piperazin-1-yl]-N-(2,6-diisopropyl-4-methoxyphenyl)acetamide]
Second: COc1cc(C(C)C)c(NC(=O)CN2CCN(CCCSc3nc4ccccc4o3)CC2)c(C(C)C)c1 [Example 119, 2-[4-[3-(benzoxazol-2-ylthio)propyl]piperazin-1-yl]-N-(2,6-diisopropyl-4-methoxyphenyl)acetamide]
The melting point of the first is higher: 165 to 166 °C for the first, 129 to 130 °C for the second.

Compared with Cc1cc(SC(C)C)c(NC(=O)CN2CCN(CCSc3nc4ccccc4o3)CC2)c(SC(C)C)n1.Cl.Cl, CC(C)c1ccc(F)c(C(C)C)c1NC(=O)CN1CCN(CCSc2nc3ccccc3o2)CC1 [Example 155, 2-[4-[2-(benzoxazol-2-ylthio)ethyl]piperazin-1-yl]-N-(2,6-diisopropyl-3-fluorophenyl)acetamide] is lower in melting point: 159 to 164 °C for the first, 142 to 144 °C for the second.

First: CC(C)c1cccc(C(C)C)c1NC(=O)CN1CCN(CCCSc2nc3ccccc3s2)CC1 [Example 8, 2-[4-[3-(benzothiazol-2-ylthio)propyl]piperazin-1-yl]-N-(2,6-diisopropylphenyl)acetamide]
Second: CC(C)c1cccc(C(C)C)c1NC(=O)CN1CCN(CCSc2nc3ccccc3s2)CC1 [Example 2, 2-[4-[2-(benzothiazol-2-ylthio)ethyl]-piperazin-1-yl]-N-(2,6-diisopropylphenyl)acetamide]
The melting point of the first is lower: 113 to 115 °C for the first, 170 to 171 °C for the second.

First: CCOC(=O)COc1cc(C(C)C)c(NC(=O)CN2CCN(CCSc3nc4ccccc4o3)CC2)c(C(C)C)c1 [Example 77, 2-[4-[2-(benzoxazol-2-ylthio)ethyl]piperazin-1-yl]-N-[2,6-diisopropyl-4-ethoxycarbonylmethyloxyphenyl)acetamide]
Second: CC(C)c1ccc([N+](=O)[O-])c(C(C)C)c1NC(=O)CN1CCN(CCSc2nc3ccccc3o2)CC1 [Example 58, 2-[4-[2-(benzoxazol-2-ylthio)ethyl]piperazin-1-yl]-N-(2,6-diisopropyl-3-nitrophenyl)acetamide]
The melting point of the first is lower: 118 to 120 °C for the first, 143 to 145 °C for the second.

First: CC(C)c1cccc(C(C)C)c1NC(=O)NCCN1CCN(CCSc2nc3ccccc3o2)CC1 [Example 79, N-[2-[4-[2-(benzoxazol-2-ylthio)-ethyl]piperazin-1-yl]ethyl]-N′-(2,6-diisopropylphenyl)urea]
Second: CC(C)c1cccc(C(C)C)c1NC(=O)NCCN1CCN(CCSc2nc3ncccc3o2)CC1 [Example 83, N-[2-[4-[2-(oxazolo[4,5-b]pyridine-2-ylthio)ethyl]piperazin-1-yl]ethyl]-N′-(2,6-diisopropylphenyl)urea]
The melting point of the first is lower: 152 to 153 °C for the first, 175 to 176 °C for the second.

CC(C)c1cccc(C(C)C)c1NC(=O)CN1CCN(CCSc2nc3cccc(CO)c3o2)CC1 [Example 102, 2-[4-[2-(7-hydroxymethylbenzoxazol-2-ylthio]ethyl]piperazin-1-yl]-N-(2,6-diisopropylphenyl)acetamide] and CC(C)c1cccc(C(C)C)c1NC(=O)CN1CCN(CCSc2nc3cccc(C(C)(C)C)c3o2)CC1 [Example 95, 2-[4-[2-(7-tert-butylbenzoxazol-2-ylthio)ethyl]piperazin-1-yl]-N-(2,6-diisopropylphenyl)acetamide] cannot be ordered by melting point: 138 to 139 °C for the first, 138 to 140 °C for the second.

First: CC(C)c1cccc(C(C)C)c1NC(=O)CN1CCCN(CCCSc2nc3cccc(C(F)(F)F)c3o2)CC1 [Example 91, 2-[4-[3-(7-trifluoromethylbenzoxazol-2-ylthio)propyl]homopiperazin-1-yl]-N-(2,6-diisopropylphenyl)acetamide]
Second: CC(=O)c1cccc2nc(SCCCN3CCCN(CC(=O)Nc4c(C(C)C)cccc4C(C)C)CC3)oc12 [Example 94, 2-[4-[3-(7-acetylbenzoxazol-2-ylthio)propyl]homopiperazin-1-yl]-N-(2,6-diisopropylphenyl)acetamide]
The melting point of the first is lower: 77 to 79 °C for the first, 86 to 88 °C for the second.

First: CC(C)c1cccc(C(C)C)c1NC(=O)NCCN1CCN(CCSc2nc3ccccc3s2)CC1 [Example 81, N-[2-[4-[2-(benzothiazole-2-ylthio)ethyl]piperazin-1-yl]ethyl]-N′-(2,6-diisopropylphenyl)urea]
Second: COC(=O)c1cccc2oc(SCCCN3CCN(CC(=O)Nc4c(C(C)C)cccc4C(C)C)CC3)nc12 [Example 11, 2-[4-[3-(4-methoxycarbonylbenzoxazol-2-ylthio)propyl]piperazin-1-yl]-N-(2,6-diisopropylphenyl)acetamide]
The melting point of the first is higher: 147 to 149 °C for the first, 132 to 133 °C for the second.

First: COC(=O)c1cccc2nc(SCCCN3CCCN(CC(=O)Nc4c(C(C)C)cccc4C(C)C)CC3)oc12 [Example 14, 2-[4-[3-(7-methoxycarbonylbenzoxazol-2-ylthio)propyl]homopiperazin-1-yl]-N-(2,6-diisopropylphenyl)acetamide]
Second: CCOCCOc1ccc(C(C)C)c(NC(=O)CN2CCN(CCCSc3nc4ccccc4o3)CC2)c1C(C)C [Example 71, 2-[4-[3-(benzoxazol-2-ylthio)propyl]piperazin-1-yl]-N-[2,6-diisopropyl-3-(2-ethoxyethyloxy)phenyl]acetamide]
The melting point of the first is lower: 83 to 85 °C for the first, 99 to 100 °C for the second.

In the case of CC(C)c1cc(CO)cc(C(C)C)c1NC(=O)CN1CCN(CCSc2nc3cccc(C(F)(F)F)c3o2)CC1 [Example 140, 2-[4-[2-(7-trifluoromethylbenzoxazol-2-ylthio)ethyl]piperazin-1-yl]-N-[2,6-diisopropyl-4-hydroxymethylphenyl]acetamide], the melting point is reported as 146 to 148 °C.

For COc1cc2oc(SCCN3CCN(CC(=O)Nc4c(C(C)C)cccc4C(C)C)CC3)nc2c(OC)c1OC [Example 98, 2-[4-[2-(4,5,6-trimethoxybenzoxazol-2-ylthio)ethyl]piperazin-1-yl]-N-(2,6-diisopropylphenyl)acetamide], the melting point was 126 to 129 °C (dec.).
